Data as given in US20170158697A1, “Protein Kinase Inhibitors” (Pharmascience Inc., priority 2013, published 2017).
pEC50: −log10 of the molar value.

Key:
[1] = system: splenocytes from CD1 mice; experiment: Splenic cell proliferation assay (anti-IgM stimulated, Cell Titer-Glo); type: cell-based; conditions: Splenocyte; mouse splenocytes, 2.5 ug/ml anti-IgM F(ab')2 for 72 h; read-out: Inhibition of splenic cell proliferation, EC50
Experimental: Splenic Cell Proliferation Assay
Proliferation of splenocytes in response to anti-IgM can be blocked by inhibition of Btk. Splenocytes were obtained from 6 week old male CD1 mice (Charles River Laboratories Inc.). Mouse spleens were manually disrupted in PBS and filtered using a 70 um cell strainer followed by ammonium chloride red blood cell lysis. Cells were washed, resuspended in Splenocyte Medium (HyClone RPMI supplemented with 10% heat-inactivated FBS, 0.5× non-essential amino acids, 10 mM HEPES, 50 uM beta mercaptoethanol) and incubated at 37° C., 5% CO2 for 2 h to remove adherent cells. Suspension cells were seeded in 96 well plates at 50,000 cells per well and incubated at 37° C., 5% CO2 for 1 h. Splenocytes were pre-treated in triplicate with 10,000 nM curves of Formula I compounds for 1 h, followed by stimulation of cell proliferation with 2.5 ug/ml anti-IgM F(ab′)2 (Jackson ImmunoResearch) for 72 h. Cell proliferation was measured by Cell Titer-Glo Luminescent Assay (Promega). EC50 values (50% proliferation in the presence of compound as compared to vehicle treated controls) were calculated from dose response compound curves using GraphPad Prism Software.

[2] = target: T1, histidine tagged recombinant human full-length Bruton Agammaglobulinemia Tyrosine Kinase (Btk) (Homo sapiens, UniProt Q06187); experiment: Btk kinase inhibition assay, Method A (fluorescence polarization, KinEASE FP Fluorescein Green); type: biochemical; conditions: 10 μM ATP, 250 μM substrate, 60 minutes, Ki by Cheng-Prusoff from IC50, read-out: Inhibition of Btk, EC50 (nM) (legend: Ki)
T1 construct: histidine tagged recombinant human full-length Bruton Agammaglobulinemia Tyrosine Kinase (Btk); His tag
T1 sequence (Q06187 whole entry): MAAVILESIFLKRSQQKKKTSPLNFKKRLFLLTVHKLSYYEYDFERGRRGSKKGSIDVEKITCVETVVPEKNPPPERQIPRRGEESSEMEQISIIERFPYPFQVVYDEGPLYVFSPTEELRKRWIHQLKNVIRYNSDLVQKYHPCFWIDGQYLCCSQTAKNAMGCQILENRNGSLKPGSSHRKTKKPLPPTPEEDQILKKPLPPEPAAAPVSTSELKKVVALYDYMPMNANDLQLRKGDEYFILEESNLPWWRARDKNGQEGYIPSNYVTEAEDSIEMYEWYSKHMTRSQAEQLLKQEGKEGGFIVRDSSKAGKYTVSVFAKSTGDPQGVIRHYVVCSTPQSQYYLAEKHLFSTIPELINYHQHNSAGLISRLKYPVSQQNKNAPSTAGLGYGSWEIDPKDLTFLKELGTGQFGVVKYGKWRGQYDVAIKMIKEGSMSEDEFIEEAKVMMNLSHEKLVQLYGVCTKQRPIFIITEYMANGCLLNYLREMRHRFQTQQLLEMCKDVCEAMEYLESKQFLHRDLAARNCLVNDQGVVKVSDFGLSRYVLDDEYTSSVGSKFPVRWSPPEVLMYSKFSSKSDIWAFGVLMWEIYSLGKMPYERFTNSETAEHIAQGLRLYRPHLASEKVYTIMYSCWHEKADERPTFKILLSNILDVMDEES
Experimental: Fluorescence polarization-based kinase assays were performed in 384 well-plate format using histidine tagged recombinant human full-length Bruton Agammaglobulinemia Tyrosine Kinase (Btk) and a modified protocol of the KinEASE™ FP Fluorescein Green Assay supplied from Millipore®. Kinase reaction were performed at room temperature for 60 minutes in presence of 250 μM substrate, 10 μM ATP and variable test article concentrations. The reaction was stopped with EDTA/kinease detection reagents. Phosphorylation of the substrate peptide was detected by fluorescence polarization measured with a Tecan 500 instrument. From the dose-response curve obtained, the IC50 was calculated using Graph Pad Prisms® using a non linear fit curve. The Km for ATP on each enzyme was experimentally determined and the Ki values calculated using the Cheng-Prusoff equation (see: Cheng Y, Prusoff W. H. (1973) Relationship between the inhibition constant (K1) and the concentration of inhibitor which causes 50% inhibition (I50) of an enzymatic reaction”. Biochem Pharmacol 22 (23): 3099-108). ki values are reported in Tables 2a and 2b: […]

[3] = target: T2, human BTK kinase (hBTK) (Homo sapiens, UniProt Q06187); experiment: Btk kinase inhibition assay, Method B (KinaseProfiler radiometric protein kinase assay, Eurofins); type: biochemical; conditions: 40 minutes, 250 μM substrate
T2 construct: purchased Eurofins Pharma Discovery Services UK Limited (assay service)
T2 sequence (Q06187 whole entry): as above
Experimental: In vitro potency of selected compound was defined against human BTK kinase (hBTK) using KinaseProfiler radiometric protein kinase assays performed at Eurofins Pharma Discovery Services UK Limited.
hBTK kinase is diluted in buffer and all compounds were prepared to 50× final assay concentration in 100% DMSO. This working stock of the compound was added to the assay well as the first component in the reaction, followed by the remaining components as detailed in the assay protocol listed above. The reaction was initiated by the addition of the MgATP mix. The kinase reaction was performed at room temperature for 40 minutes in presence of 250 μM substrate, 10 mM MgAcetate, [γ-33P-ATP] (specific activity approx. 500 cpm/pmol, concentration as required) and variable test article concentrations. The ATP concentrations in the assays were with 15 μM of the apparent. The reaction was stopped by the addition of 3% phosphoric acid solution. 10 μL of the reaction is then spotted onto a P30 filtermat and washed three times for 5 minutes in 75 mM phosphoric acid and once in methanol prior to drying and scintillation counting. In addition positive control wells contain all components of the reaction, except the compound of interest; however, DMSO (at a final concentration of 2%) were included in these wells to control for solvent effects as well as blank wells contain all components of the reaction, with a reference inhibitor replacing the compound of interest. This abolishes kinase activity and establishes the base-line (0% kinase activity remaining). The potency of each compound was reported by estimating the EC50.

| SMILES | Ki [2] | pEC50 [3] | pEC50 [1] |
| --- | --- | --- | --- |
| Cc1ncc(COc2cccc(Oc3ccc(-c4cn(C(C)C)c5ncnc(N)c45)cc3)c2F)cn1 [Compound 19] | – | > 7.00 | > 7.00 |
| Cc1ccc(COc2cc(F)cc(Oc3ccc(-c4cn(C5CCOCC5)c5ncnc(N)c45)cc3)c2)cn1 [Compound 4] | < 100 nM | – | > 7.00 |
| Cc1ncc(COc2cc(F)cc(Oc3ccc(-c4cn(C[C@@H]5CCCN5)c5ncnc(N)c45)cc3)c2)cn1 [Compound 8] | < 100 nM | – | 6.00 to 7.00 |
| Cc1ncc(COc2cc(F)cc(Oc3ccc(-c4cn(C[C@H]5CCCN5)c5ncnc(N)c45)cc3)c2)cn1 [Compound 10] | 100 to 1000 nM | – | 6.00 to 7.00 |
| Cc1ncc(COc2cc(F)cc(Oc3ccc(-c4cn(C5CCOCC5)c5ncnc(N)c45)cc3)c2)s1 [Compound 5] | < 100 nM | – | > 7.00 |
| CC(C)n1cc(-c2ccc(Oc3cc(F)cc(OCc4cncnc4)c3)cc2)c2c(N)ncnc21 [Compound 17] | < 100 nM | – | > 7.00 |
| Cc1ccc(COc2cc(F)cc(Oc3ccc(-c4cn(C(C)C)c5ncnc(N)c45)cc3)c2)cn1 [Compound 2] | < 100 nM | – | > 7.00 |
| CC(C)n1cc(-c2ccc(Oc3cc(F)cc(OCc4cnc(C5CC5)nc4)c3)cc2)c2c(N)ncnc21 [Compound 14] | < 100 nM | – | 6.00 to 7.00 |
| CC(C)n1cc(-c2ccc(Oc3cc(F)cc(OCc4ccccc4)c3)cc2)c2c(N)ncnc21 [Compound 9] | < 100 nM | – | 6.00 to 7.00 |
| Cc1ncc(COc2cc(F)cc(Oc3ccc(-c4cn(C(C)C)c5ncnc(N)c45)cc3)c2)s1 [Compound 1] | < 100 nM | – | > 7.00 |
| CC(C)c1ncc(COc2cc(F)cc(Oc3ccc(-c4cn(C(C)C)c5ncnc(N)c45)cc3)c2)cn1 [Compound 13] | < 100 nM | – | 6.00 to 7.00 |
| Cc1ncc(COc2cc(F)cc(Oc3ccc(-c4cn(C[C@@H]5CCCN5)c5ncnc(N)c45)cc3)c2)s1 [Compound 7] | < 100 nM | – | 6.00 to 7.00 |
| CC(C)n1cc(-c2ccc(Oc3cc(F)cc(OCc4cnc(CO)nc4)c3)cc2)c2c(N)ncnc21 [Compound 20] | – | > 7.00 | 6.00 to 7.00 |
| Cc1ncc(COc2cc(F)cc(Oc3ccc(-c4cn(C(C)(C)CO)c5ncnc(N)c45)cc3)c2)cn1 [Compound 24] | – | 6.00 to 7.00 | > 7.00 |
| Cc1ncc(COc2cc(F)cc(Oc3ccc(-c4cn([C@H]5C[C@@H](N6CCOCC6)C5)c5ncnc(N)c45)cc3)c2)cn1 [Compound 23] | < 100 nM | – | > 7.00 |

Second part, led by results:

| Ki [2] | pEC50 [3] | SMILES | pEC50 [1] |
| --- | --- | --- | --- |
| < 100 nM | – | Cc1ncc(COc2cc(F)cc(Oc3ccc(-c4cn(C(C)C)c5ncnc(N)c45)cc3)c2)cn1 [Compound 3] | > 7.00 |
| – | > 7.00 | CC(=O)N1CCC[C@@H](n2cc(-c3ccc(Oc4cc(F)cc(OCc5cnc(C)nc5)c4)cc3)c3c(N)ncnc32)C1 [Compound 25] | > 7.00 |
| < 100 nM | – | CCCc1ncc(COc2cc(F)cc(Oc3ccc(-c4cn(C(C)C)c5ncnc(N)c45)cc3)c2)cn1 [Compound 12] | 6.00 to 7.00 |
| – | > 7.00 | CC(=O)N1CCC[C@@H]1Cn1cc(-c2ccc(Oc3cc(F)cc(OCc4cnc(C)nc4)c3)cc2)c2c(N)ncnc21 [Compound 22] | 6.00 to 7.00 |
| < 100 nM | – | Cc1ncc(COc2cc(F)cc(Oc3ccc(-c4cn(C5CCOCC5)c5ncnc(N)c45)cc3)c2)cn1 [Compound 6] | > 7.00 |
| 100 to 1000 nM | – | Cc1ncc(COc2cc(Oc3ccc(-c4cn(C(C)C)c5ncnc(N)c45)cc3)ccc2F)cn1 [Compound 15] | 6.00 to 7.00 |
| – | > 7.00 | Cc1ncc(COc2cc(F)cc(Oc3ccc(-c4cn([C@H]5C[C@@H](O)C5)c5ncnc(N)c45)cc3)c2)cn1 [Compound 26] | > 7.00 |
| – | > 7.00 | CC(C)n1cc(-c2ccc(Oc3cc(F)cc(OCc4ccc(CO)nc4)c3)cc2)c2c(N)ncnc21 [Compound 21] | > 7.00 |
| < 100 nM | – | Cc1ncc(COc2ccc(F)c(Oc3ccc(-c4cn(C(C)C)c5ncnc(N)c45)cc3)c2)cn1 [Compound 11] | 6.00 to 7.00 |
| < 100 nM | – | Cc1ncc(COc2cc(F)cc(Oc3ccc(-c4cn([C@H]5C[C@@](C)(O)C5)c5ncnc(N)c45)cc3)c2)cn1 [Compound 18] | > 7.00 |
